According to patent publication US20120165319A1, “INHIBITORS OF INTERLEUKIN-1 BETA CONVERTING ENZYME” (VERTEX PHARMACEUTICALS INCORPORATED, priority 1995, published 2012):
Where two headings read alike, the source gives them in different places.

How the values were obtained:
[1] = Pharmacokinetic studies in the mouse (i.v. clearance, plasma levels); format: in vivo; settings: CD-1, plasma, iv, 25 mg/kg, mouse
How it was run: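 Male CD-1 mice (26-31 g) given 25 mg/kg i.v. via tail vein in 0.02M Tris (2.5 mg/ml), groups of 5 per timepoint from 2 to 120 min. Heparinized plasma deproteinated (perchloric acid or acetonitrile) and analysed by reverse-phase HPLC with UV or MS detection against plasma-spiked calibration (0.5 to 50 μg/ml).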

[2] = In vivo rat clearance assay; settings: plasma, iv
How it was run: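 Rats cannulated a day beforehand received 10–20 mg/kg by intravenous jugular dosing in propylene glycol/saline with 100 mM sodium bicarbonate. Carotid blood was sampled from 0 to 90 min, and plasma was extracted with acetonitrile/0.1% TFA for HPLC quantification. Clearance from non-linear regression pharmacokinetic analysis.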

[3] = target: T1, ICE (Homo sapiens, UniProt P29466); experiment: Enzyme assay with UV-visible substrate (visible ICE assay, Succinyl-Tyr-Val-Ala-Asp-pNitroanilide); format: biochemical
T1 sequence (P29466 120-297 limits assumed): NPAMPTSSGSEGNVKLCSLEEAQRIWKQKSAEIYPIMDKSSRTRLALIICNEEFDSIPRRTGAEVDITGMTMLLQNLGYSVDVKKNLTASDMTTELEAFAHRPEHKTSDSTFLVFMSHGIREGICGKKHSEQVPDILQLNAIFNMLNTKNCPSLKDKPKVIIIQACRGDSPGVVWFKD
T1 sequence (P29466 317-404 limits assumed): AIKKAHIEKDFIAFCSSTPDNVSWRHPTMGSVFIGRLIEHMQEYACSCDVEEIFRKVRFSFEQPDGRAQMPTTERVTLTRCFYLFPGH
How it was run: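 Read-out is the rate of pNA chromophore release (mOD/min, linear fit) monitored at 405-603 nm over 20 min at 37° C. Substrate was succinyl-Tyr-Val-Ala-Asp-pNitroanilide, added after a 15 min room-temperature preincubation of ICE with inhibitor.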

[4] = test system: IL-1β production, LPS-challenged mice; experiment: In vivo acute assay for efficacy as anti-inflammatory agent: LPS-induced IL-1β production in mice; set-up: species or system mouse; settings: Mus musculus, po, LPS challenged mice, compound PO, 50 mg/kg, read-out: percent inhibition of IL-1β production
How it was run: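 CD1 mice (n=6) were challenged with LPS 20 mg/kg IP and given compound IP in olive oil:DMSO:ethanol (90:5:5) 1 h after LPS, or at the time of challenge for some analogs. Blood was taken 7 h after LPS and serum IL-1β was measured by ELISA. Oral gavage at 50 mg/kg was also tested.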

[5] = 0 h, administered 0 h relative to time of LPS challenge
[6] = 2 h, administered −2 h relative to time of LPS challenge
[7] = 1 h, administered +1 h relative to time of LPS challenge
[8] = 1 h, administered −1 h relative to time of LPS challenge

Row | Structure (SMILES) | clearance ([1]; Table 17) [mL/min/kg] | clearance ([2]; Table 17) [mL/min/kg] | Ki ([3]; Table 17) [nM] | melting point | clearance [1] [mL/min/kg] | clearance ([2]; 10-20 mg/kg) [mL/min/kg] | Ki ([3]; Table 5) [nM] | inhibition at 50 mg/kg [4, 5] [%] | inhibition at 50 mg/kg [4, 6] [%] | inhibition at 50 mg/kg [4, 7] [%] | inhibition at 50 mg/kg [4, 8] [%]
1 | COC(=O)N[C@H]1CCC(=O)N2CCC[C@@H](C(=O)N[C@@H](CC(=O)O)C(=O)CSc3ncccn3)N2C1=O [Compound 511c, [3S(1S,9S)]3-[6,10-Dioxo-9-(methoxycarbonyl)-amino-1,2,3,4,7,8,9,10-octahydro-6H-pyridazino[1,2-a][1,2]diazepine-1-carboxamido]-5-(2-mercaptopyrimidine)-4-oxopentanoic acid] | 78 | 40 | 730 | 105 °C (dec.) | – | – | – | – | – | – | –
2 | O=C(O)C[C@H](NC(=O)[C@@H]1CCCN2C(=O)CC[C@H](NC(=O)OCc3ccccc3)C(=O)N12)C(=O)COC(=O)c1c(Cl)cccc1Cl [Compound 217d, [3S(1S,9S)]3-(9-Benzyloxycarbonylamino-6,10-dioxo-1,2,3,4,7,8,9,10-octahydro-6H-pyridazino[1,2-a][1,2]-diazepine-1-carboxamido)-5-(2,6-dichlorobenzoyloxy)-4-oxopentanoic acid] | – | – | – | 85 to 110 °C | – | – | – | – | – | – | –
3 | O=C[C@H](CC(=O)O)NC(=O)[C@@H]1CCCN2C(=O)CCN(NC(=O)c3cc4ccccc4[nH]3)C(=O)N12 [Compound 1075, [3S(4S)]3-[6,10-Dioxo-7-(indole-2-carboxamido)-1,2,3,4,7,8,9,10-octahydro-6H-pyridazino[1,2-a][1,2,4]triazepine-4-carboxamido]-4-oxobutanoic acid] | – | 14.5 | 120 | 210 to 215 °C | – | – | – | – | – | – | –
4 | O=C[C@H](CC(=O)O)NC(=O)[C@@H]1CCCN2C(=O)CC[C@H](NC(=O)c3ccc4c(c3)OCO4)C(=O)N12 [Compound 415, [3S(1S,9S)]3-[6,10-Dioxo-9-(3,4-methylenedioxybenzoylamino)-1,2,3,4,7,8,9,10-octahydro-6H-pyridazino[1,2-a][1,2]diazepine-1-carboxamido]-4-oxobutanoic acid] | – | – | – | 158 to 162 °C | 26 | 18 | 2.5 | – | – | – | –
5 | O=C(O)C[C@H](NC(=O)[C@@H]1CCCN2C(=O)CC[C@H](NC(=O)c3ccccc3)C(=O)N12)C(=O)c1nc2cc(Cl)cc(Cl)c2o1 [Compound 223e, [3S(1S,9S)]3-(9-Benzoylamino-6,10-dioxo-1,2,3,4,7,8,9,10-octahydro-6H-pyridazino-[1,2-a][1,2]diazepine-1-carboxamido)-4-(5,7-dichlorobenzoxazol-2-yl)-4-oxobutanoic acid] | – | – | – | 167 to 180 °C | 89 | – | 1.6 | – | – | – | –
6 | O=C(O)C[C@H](NC(=O)[C@@H]1CCCN2C(=O)CC[C@H](NC(=O)c3ccccc3)C(=O)N12)C(=O)CSCc1ccccc1Cl [Compound 226e, [3S(1S,9S)]3-(9-Benzoylamino-6,10-dioxo-1,2,3,4,7,8,9,10-octahydro-6H-pyridazino[1,2-a][1,2]-diazepine-1-carboxamido)-5-(2-chlorophenyl)methylthio-4-oxopentanoic acid] | – | – | – | 95 to 100 °C | 109 | – | 15 | – | – | – | –
7 | O=C[C@H](CC(=O)O)NC(=O)[C@@H]1CCCN2C(=O)CCN(NC(=O)c3ccc4c(c3)OCO4)C(=O)N12 [Compound 1015, [3S(4S)]3-[6,10-Dioxo-7-(3,4-methylenedioxybenzoylamino)-1,2,3,4,7,8,9,10-octahydro-6H-pyridazino[1,2-a][1,2,4]triazepine-4-carboxamido]-4-oxobutanoic acid] | – | – | – | 170 to 175 °C | – | 23 | 40 | 28 | 15 | – | –
8 | COc1cc(C(=O)N[C@H]2CCC(=O)N3CCC[C@@H](C(=O)N[C@H](C=O)CC(=O)O)N3C2=O)cc(OC)c1OC [Compound 417, [3S(1S,9S)]3-[6,10-Dioxo-1,2,3,4,7,8,9,10-octahydro-9-(3,4,5-trimethoxybenzoylamino)-6H-pyridazino[1,2-a][1,2]diazepine-1-carboxamido]-4-oxobutanoic acid] | – | – | – | 145 to 155 °C | 33 | 22 | 8 | – | – | – | –
9 | O=C1C[C@H](NC(=O)[C@@H]2CCCN3C(=O)CC[C@H](NC(=O)c4ccccc4)C(=O)N23)[C@H](OCc2ccccc2)O1 [Compound 2100o, [1S,9S(2R,3S)]9-Benzoylamino-N-(2-benzyloxy-5-oxotetrahydrofuran-3-yl)-6,10-dioxo-1,2,3,4,7,8,9,10-octahydro-6H-pyridazino[1,2-a][1,2]diazepine-1-carboxamide] | – | – | 670 | 115 to 117 °C | – | – | – | 68 | 31 | 64 | 44
10 | O=C[C@H](CC(=O)O)NC(=O)[C@@H]1CCCN2C(=O)CC[C@H](NC(=O)c3ccc(NC(=O)Cc4ccccc4)cc3)C(=O)N12 [Compound 486, [3S(1S,9S)]3-{6,10-Dioxo-1,2,3,4,7,8,9,10-octahydro-9-[4-(phenylacetamido)benzamido]-6H-pyridazino[1,2-a][1,2]diazepine-1-carboxamido}-4-oxobutanoic acid] | – | – | – | 165 to 169 °C | – | 37 | 2.3 | 15 | 19 | – | –
11 | O=C[C@H](CC(=O)O)NC(=O)[C@@H]1CCCN2C(=O)CC[C@H](NC(=O)c3cccc4ccccc34)C(=O)N12 [Compound 408, [3S(1S,9S)]3-[6,10-Dioxo-9-(naphth-1-oylamino)-1,2,3,4,7,8,9,10-octahydro-6H-pyridazino[1,2-a][1,2]diazepine-1-carboxamido]-4-oxobutanoic acid] | – | – | – | 157 to 165 °C | 41 | 23 | 0.5 | – | – | – | –
12 | O=C[C@H](CC(=O)O)NC(=O)[C@@H]1CCCN2CCC[C@H](NC(=O)c3ccccc3)C(=O)N12 [Compound 246] | – | – | – | 110 to 115 °C | 31 | – | 12 | – | – | – | –
13 | CC(=O)Nc1ccc(C(=O)NN2CCC(=O)N3CCC[C@@H](C(=O)N[C@H](C=O)CC(=O)O)N3C2=O)cc1 [Compound 1018, [3S(4S)]3-{7-[(4-Acetamido)benzamido]-6,10-Dioxo-1,2,3,4,7,8,9,10-octahydro-6H-pyridazino[1,2-a][1,2,4]-triazepine-4-carboxamido}-4-oxobutanoic acid] | – | 9.1 | 170 | 235 to 240 °C | – | – | – | – | – | – | –
14 | O=C1C[C@H](NC(=O)[C@@H]2CCCN3C(=O)CC[C@H](NC(=O)c4ccccc4)C(=O)N23)C(OCc2ccccc2)O1 (single isomer, unassigned) [Compound 2100n] | – | – | 670 | 112 to 115 °C | – | – | – | 64 | 21 | 73 | 9
15 | CC(C)CC(=O)Nc1ccc(C(=O)N[C@H]2CCC(=O)N3CCC[C@@H](C(=O)N[C@H](C=O)CC(=O)O)N3C2=O)cc1 [Compound 487, [3S(1S,9S)]3-{6,10-Dioxo-9-[4-(3-methylbutan-1-oylamino)benzamido]-1,2,3,4,7,8,9,10-octahydro-6H-pyridazino[1,2-a][1,2]diazepine-1-carboxamido}-4-oxobutanoic acid] | – | – | – | 176 to 180 °C | – | 20 | 2.4 | 20 | 17 | – | –
16 | COC(=O)N[C@H]1CCC(=O)N2CCC[C@@H](C(=O)N[C@@H](CC(=O)O)C(=O)COC(=O)c3c(C)cccc3C)N2C1=O [Compound 285, [3S(1S,9S)]5-(2,6-Dimethylbenzoyloxy)-3-[6,10-dioxo-9-(methoxycarbonyl)amino-1,2,3,4,7,8,9,10-octahydro-6H-pyridazino[1,2-a][1,2]diazepine-1-carboxamido]-4-oxopentanoic acid] | – | – | – | 110 °C (dec.) | 130 | 50 | – | – | – | – | –
